Converted amounts (≈) assume the structure as drawn. The source made the active and inactive calls. No cut-off for these calls is given here.
Legend:
[1] = target: T1, Retinoic acid receptor beta (Homo sapiens) (UniProt P10826); test: Efficacy against RARbeta1
T1 sequence (whole entry): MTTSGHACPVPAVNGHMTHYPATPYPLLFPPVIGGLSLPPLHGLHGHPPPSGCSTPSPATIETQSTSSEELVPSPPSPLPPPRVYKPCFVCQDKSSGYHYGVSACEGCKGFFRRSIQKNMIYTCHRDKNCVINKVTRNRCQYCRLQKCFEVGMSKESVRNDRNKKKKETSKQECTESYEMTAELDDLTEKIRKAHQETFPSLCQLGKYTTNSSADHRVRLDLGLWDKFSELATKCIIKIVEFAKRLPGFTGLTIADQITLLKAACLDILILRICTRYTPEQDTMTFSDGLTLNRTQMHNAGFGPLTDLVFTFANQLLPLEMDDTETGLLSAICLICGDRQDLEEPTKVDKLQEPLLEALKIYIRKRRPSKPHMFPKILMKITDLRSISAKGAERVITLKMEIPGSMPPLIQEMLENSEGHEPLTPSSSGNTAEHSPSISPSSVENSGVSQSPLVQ

[2] = target: T2, Retinoic acid receptor beta (Homo sapiens, UniProt P10826); test: Transcriptional activity against RARbeta1; assay type: functional
T2 sequence (P10826 whole entry): T1 sequence (whole entry)

[3] = target: T1, Retinoic acid receptor beta (Homo sapiens); test: Efficacy against RARbeta2
[4] = target: T2, Retinoic acid receptor beta; test: Transcriptional activity against RARbeta2; assay type: functional
MCF7 = test: Inhibition of DNA synthesis in MCF7 cells by [3H]thymidine incorporation; assay type: functional, cell-based; details: Homo sapiens
[5] = Solubility at pH 7.4; assay type: physicochemical; details: buffer
[6] = Distribution coefficient of the compound, log D; assay type: physicochemical; details: octanol/water
[7] = Partition coefficient of the compound, log P; assay type: physicochemical; details: octanol/water
[8] = Oral bioavailability in Rats; assay type: ADME, organism-based; details: rat, in vivo

SMILES: CCCCCc1ccc(-c2ccc(C(=O)O)cc2)cc1
- Efficacy [1]: inactive
- EC50 [2]: > 10 µM
- Efficacy [3]: 38%
- EC50 [4]: 15.8 nM

SMILES: CCCCCCCCc1ccc(-c2ccc(C(=O)O)cc2)cc1
- Efficacy [1]: 31%
- EC50 [2]: > 10 µM
- Efficacy [3]: 92%
- Activity (MCF7): Active
- EC50 [4]: 126 nM
- solubility [5]: < 1 µg/mL

SMILES: CCc1ccc(-c2ccc(C(=O)O)cc2)cc1
- Efficacy [1]: inactive
- Efficacy [3]: inactive

SMILES: CCCCOCCOc1nc(-c2ccc(C(=O)O)c(F)c2)sc1C
- Efficacy [1]: 40%
- logD [6]: 1.4
- logP [7]: 5.1
- bioavailability [8]: 52%
- Efficacy [3]: 96%
- solubility [5]: 4800 µg/mL (≈ 13.6 mM)

SMILES: CCCCCCCc1ccc(-c2ccc(C(=O)O)cc2)cc1
- Efficacy [1]: inactive
- EC50 [2]: > 10 µM
- Efficacy [3]: 64%
- EC50 [4]: 25.1 nM

SMILES: CC1(C)CCC(C)(C)c2cc(C(=O)Nc3ccc(C(=O)O)cc3)ccc21
- Efficacy [3]: 100%

SMILES: CCCCCCCCCc1ccc(-c2ccc(C(=O)O)cc2)cc1
- Efficacy [1]: 58%
- EC50 [2]: 0.316 µM
- Efficacy [3]: 100%
- EC50 [4]: 15.8 nM

SMILES: CCCc1ccc(-c2ccc(C(=O)O)cc2)cc1
- Efficacy [1]: inactive
- Efficacy [3]: inactive

SMILES: CCCCc1ccc(-c2ccc(C(=O)O)cc2)cc1
- Efficacy [1]: inactive
- EC50 [2]: > 10 µM
- Efficacy [3]: 36%
- EC50 [4]: 63.1 nM

SMILES: CCCCCCc1ccc(-c2ccc(C(=O)O)cc2)cc1
- Efficacy [1]: inactive
- EC50 [2]: > 10 µM
- Efficacy [3]: 37%
- EC50 [4]: 50.1 nM

Source: ChEMBL document CHEMBL1141226, “Discovery of a potent, orally available, and isoform-selective retinoic acid beta2 receptor agonist” (J Med Chem, 2005)
